Results: US11638706B2, “Methods for treating Huntington's disease” (PTC Therapeutics, Inc., priority 2015, dated 2023)
pIC50: −log10 of the molar value.

system: Huntingtin protein (HTT); assay: Endogenous Huntingtin Protein Assay (MSD electrochemiluminescence ELISA; MW1 or MAB2166 capture, #5656S detection); type: cell-based, human
Protocol: The Endogenous Huntingtin Protein assay used in Example 2 was developed using the Best Pair antibodies identified in Table 2, providing highly sensitive, high-throughput detection assays for polyglutamine-expanded (mHTT) and total human HTT in multiple cell systems. The platform used for the assay is the ELISA-based Meso Scale Discovery (MSD) electrochemiluminescence assay platform.
Meso Scale Discovery (MSD) 96-well or 384-well plates were coated overnight at 4° C. with MW1 (expanded polyglutamine) or MAB2166 monoclonal antibody (for capture) at a concentration of 1 μg/mL in PBS (30 μL per well). Plates were then washed three times with 300 μL wash buffer (0.05% Tween-20 in PBS) and blocked (100 μL blocking buffer; 5% BSA in PBS) for 4-5 hours at room temperature with rotational shaking and then washed three times with wash buffer.
Samples (25 μL) were transferred to the antibody-coated MSD plate and incubated overnight at 4° C. After removal of the lysates, the plate was washed three times with wash buffer, and 25 μL of #5656S (Cell signaling; rabbit monoclonal) secondary antibody (diluted to 0.25 μg/mL in 0.05% Tween-20 in blocking buffer) was added to each well and incubated with shaking for 1 Hour at room temperature. Following incubation with the secondary antibody, the wells were rinsed with wash buffer after which 25 μL of goat anti-rabbit SULFO TAG secondary detection antibody (required aspect of the MSD system) (diluted to 0.25 μg/mL in 0.05% Tween-20 in blocking buffer) was added to each well and incubated with shaking for 1 hour at room temperature. After rinsing three times with wash buffer, 150 μL of read buffer T with surfactant (MSD) were added to each empty well, and the plate was imaged on a SI 6000 imager (MSD) according to manufacturers' instructions provided for 96- or 384-well plates.

| Compound | pIC50 |
| --- | --- |
| CC1(C)CC(Oc2ccc(-c3ccc(-n4cc(N)cn4)cc3O)nn2)CC(C)(C)N1 [Cpd 421, 5-(4-amino-1H-pyrazol-1-yl)-2-{6-[(2,2,6,6-tetramethylpiperidin-4-yl)oxy]pyridazin-3-yl}phenol] | ≥ 7.00 |
| CCN1CC=C(c2ccc(-c3ccc(-c4cn[nH]c4)cc3O)nn2)CC1 [Cpd 425, 2-[6-(1-ethyl-1,2,3,6-tetrahydropyridin-4-yl)pyridazin-3-yl]-5-(1H-pyrazol-4-yl)phenol] | 6.30 to 7.00 |
| CC1(C)CC(Oc2ccc(-c3ccc(-c4cn[nH]c4)cc3C(F)F)nn2)CC(C)(C)N1 [Cpd 464, 3-[2-(difluoromethyl)-4-(1H-pyrazol-4-yl)phenyl]-6-[(2,2,6,6-tetramethylpiperidin-4-yl)oxy]pyridazine] | 5.05 to 5.52 |
| Oc1cc(-c2cn[nH]c2)ccc1-c1ccc(NC2C[C@H]3CC[C@@H](C2)N3)nn1 (stereo partly drawn) [Cpd 433, 2-{6-[(1R,5S)-8-azabicyclo[3.2.1]oct-3-ylamino]pyridazin-3-yl}-5-(1H-pyrazol-4-yl)phenol] | 6.30 to 7.00 |
| COc1cc(-n2cc([N+](=O)[O-])cn2)ccc1-c1ccc(OC2CC(C)(C)NC(C)(C)C2)nn1 [Cpd 454, 3-[2-methoxy-4-(4-nitro-1H-pyrazol-1-yl)phenyl]-6-[(2,2,6,6-tetramethylpiperidin-4-yl)oxy]pyridazine] | 5.05 to 5.52 |
| CC1(C)CC(Oc2ccc(-c3ccc(-c4cn[nH]c4)cc3F)nn2)CC(C)(C)N1 [Cpd 437, 3-[2-fluoro-4-(1H-pyrazol-4-yl)phenyl]-6-[(2,2,6,6-tetramethylpiperidin-4-yl)oxy]pyridazine] | 5.52 to 6.00 |
| COc1cc(-n2cc([N+](=O)[O-])cn2)ccc1-c1ccc(N(C)C2CC(C)(C)NC(C)(C)C2)nn1 [Cpd 420, 6-[2-methoxy-4-(4-nitro-1H-pyrazol-1-yl)phenyl]-N-methyl-N-(2,2,6,6-tetramethylpiperidin-4-yl)pyridazin-3-amine] | ≥ 7.00 |
| Oc1cc(-c2cn[nH]c2)ccc1-c1ccc(OC2CCNCC2)nn1 [Cpd 432, 2-[6-(piperidin-4-yloxy)pyridazin-3-yl]-5-(1H-pyrazol-4-yl)phenol] | 6.30 to 7.00 |
| CN(c1ccc(-c2ccc3nn(C)cc3c2)nn1)C1CC(C)(C)NC(C)(C)C1 [Cpd 442, N-methyl-6-(2-methyl-2H-indazol-5-yl)-N-(2,2,6,6-tetramethylpiperidin-4-yl)pyridazin-3-amine] | 5.05 to 5.52 |
| CN(c1nnc(-c2ccc(-c3cn[nH]c3)c(F)c2F)s1)C1CC(C)(C)NC(C)(C)C1 [Cpd 348] | ≥ 7.00 |
| Cc1nn2ccccc2c1-c1ccc(N(C)C2CC(C)(C)NC(C)(C)C2)nn1 [Cpd 445, N-methyl-6-(2-methylpyrazolo[1,5-a]pyridin-3-yl)-N-(2,2,6,6-tetramethylpiperidin-4-yl)pyridazin-3-amine] | 5.05 to 5.52 |
| CC1(C)CC(Oc2ccc(-c3cc(-c4cn[nH]c4)cs3)nn2)CC(C)(C)N1 [Cpd 450, 3-[4-(1H-pyrazol-4-yl)thiophen-2-yl]-6-[(2,2,6,6-tetramethylpiperidin-4-yl)oxy]pyridazine] | 5.05 to 5.52 |
| CC1(C)CC(Oc2ccc(-c3nc(-c4cn[nH]c4)ncc3N)nn2)CC(C)(C)N1 [Cpd 457, 2-(1H-pyrazol-4-yl)-4-{6-[(2,2,6,6-tetramethylpiperidin-4-yl)oxy]pyridazin-3-yl}pyrimidin-5-amine] | 5.05 to 5.52 |
| CN(c1nnc(Oc2cccc(-c3cn[nH]c3)c2)s1)C1CC(C)(C)NC(C)(C)C1 [Cpd 462, N,2,2,6,6-pentamethyl-N-{5-[3-(1H-pyrazol-4-yl)phenoxy]-1,3,4-thiadiazol-2-yl}piperidin-4-amine] | 5.05 to 5.52 |
| COc1cc(-c2cn[nH]c2)ccc1-c1nnc(N(C)C2CC(C)(C)NC(C)(C)C2)s1 [Cpd 307] | 6.30 to 7.00 |
| COc1cc(Cl)ccc1-c1ccc(OC2CC(C)(C)NC(C)(C)C2)nn1 [Cpd 444, 3-(4-chloro-2-methoxyphenyl)-6-[(2,2,6,6-tetramethylpiperidin-4-yl)oxy]pyridazine] | 5.05 to 5.52 |
| Oc1cc(-c2cn[nH]c2)ccc1-c1ccc(OC2C[C@H]3CC[C@@H](C2)N3)nn1 (stereo partly drawn) [Cpd 415, 2-[6-((1R,5S)-8-azabicyclo[3.2.1]oct-3-yloxy)pyridazin-3-yl]-5-(1H-pyrazol-4-yl)phenol] | ≥ 7.00 |
| CC1(C)CC(Oc2ccc(-c3ccc(-n4cc([N+](=O)[O-])cn4)cc3O)nn2)CC(C)(C)N1 [Cpd 423, 5-(4-nitro-1H-pyrazol-1-yl)-2-{6-[(2,2,6,6-tetramethylpiperidin-4-yl)oxy]pyridazin-3-yl}phenol] | ≥ 7.00 |

| Compound | pIC50 |
| --- | --- |
| Oc1cc(-c2cn[nH]c2)ccc1-c1ccc(NC2CCNCC2)nn1 [Cpd 427, 2-[6-(piperidin-4-ylamino)pyridazin-3-yl]-5-(1H-pyrazol-4-yl)phenol] | 6.30 to 7.00 |
| CC1(C)CC(Oc2ccc(-c3ccc(-c4cn[nH]c4)nc3O)nn2)CC(C)(C)N1 [Cpd 461, 6-(1H-pyrazol-4-yl)-3-{6-[(2,2,6,6-tetramethylpiperidin-4-yl)oxy]pyridazin-3-yl}pyridin-2-ol] | 5.05 to 5.52 |
| CN1CC=C(c2ccc(-c3ccc(-c4cn[nH]c4)cc3O)nn2)CC1 [Cpd 422, 2-[6-(1-methyl-1,2,3,6-tetrahydropyridin-4-yl)pyridazin-3-yl]-5-(1H-pyrazol-4-yl)phenol] | ≥ 7.00 |
| Cn1cc(-c2csc(-c3ccc(OC4CC(C)(C)NC(C)(C)C4)nn3)c2)cn1 [Cpd 438, 3-[4-(1-methyl-1H-pyrazol-4-yl)thiophen-2-yl]-6-[(2,2,6,6-tetramethylpiperidin-4-yl)oxy]pyridazine] | 5.52 to 6.00 |
| CN(c1ccc(-c2ccc(-n3ccnc3)cc2O)nn1)C1CC(C)(C)NC(C)(C)C1 [Cpd 46, 5-(1H-imidazol-1-yl)-2-(6-(methyl(2,2,6,6-tetramethylpiperidin-4-yl)amino)pyridazin-3-yl)phenol] | ≥ 7.00 |
| CC1(C)CC(Oc2ccc(-c3ccc(-c4cn[nH]c4)cc3O)nn2)CC(C)(C)N1 [Cpd 64, 5-(1H-pyrazol-4-yl)-2-(6-((2,2,6,6-tetramethylpiperidin-4-yl)oxy)pyridazin-3-yl)phenol] | ≥ 7.00 |
| CN(c1ccc(-c2ccc(-c3cn[nH]c3)nc2O)nn1)C1CC(C)(C)NC(C)(C)C1 [Cpd 460, 3-{6-[methyl(2,2,6,6-tetramethylpiperidin-4-yl)amino]pyridazin-3-yl}-6-(1H-pyrazol-4-yl)pyridin-2-ol] | 5.05 to 5.52 |
| CN(c1ccc(-c2cc3ccccc3cc2O)nn1)C1CC(C)(C)NC(C)(C)C1 [Cpd 26, 3-(6-(methyl(2,2,6,6-tetramethylpiperidin-4-yl)amino)pyridazin-3-yl)naphthalen-2-ol] | 6.30 to 7.00 |
| CN(c1ccc(-c2ccc(-c3cn[nH]c3)cc2C(F)F)nn1)C1CC(C)(C)NC(C)(C)C1 [Cpd 465, 6-[2-(difluoromethyl)-4-(1H-pyrazol-4-yl)phenyl]-N-methyl-N-(2,2,6,6-tetramethylpiperidin-4-yl)pyridazin-3-amine] | 5.05 to 5.52 |
| Oc1cc(-c2cn[nH]c2)ccc1-c1ccc(NC2C[C@H]3CC[C@@H](C2)N3)nn1 (stereo partly drawn) [Cpd 412, 2-[6-((1R,5S)-8-azabicyclo[3.2.1]oct-3-ylamino)pyridazin-3-yl]-5-(1H-pyrazol-4-yl)phenol] | ≥ 7.00 |
| CN(c1ccc(-c2ccc(-c3ccnc(O)c3)cc2O)nn1)C1CC(C)(C)NC(C)(C)C1 [Cpd 170, 4-(3-hydroxy-4-(6-(methyl(2,2,6,6-tetramethylpiperidin-4-yl)amino)pyridazin-3-yl)phenyl)pyridin-2-ol] | ≥ 7.00 |
| CC1CC(Oc2ccc(-c3ccc(-c4cn[nH]c4)cc3O)nn2)CC(C)N1 (stereo not drawn) [Cpd 436, 2-{6-[(2,6-dimethylpiperidin-4-yl)oxy]pyridazin-3-yl}-5-(1H-pyrazol-4-yl)phenol] | 6.00 to 6.30 |
| CN(c1ccc(-c2ccc(-c3cn[nH]c3)cc2O)nn1)C1C[C@H]2CC[C@@H](C1)N2 (stereo partly drawn) [Cpd 411, 2-{6-[(1R,5S)-8-azabicyclo[3.2.1]oct-3-yl(methyl)amino]pyridazin-3-yl}-5-(1H-pyrazol-4-yl)phenol] | ≥ 7.00 |
| CN(c1ccc(-c2ccc(-c3cn[nH]c3)cc2F)nn1)C1CC(C)(C)NC(C)(C)C1 [Cpd 452, 6-[2-fluoro-4-(1H-pyrazol-4-yl)phenyl]-N-methyl-N-(2,2,6,6-tetramethylpiperidin-4-yl)pyridazin-3-amine] | 5.05 to 5.52 |
| CC1(C)CC(Oc2ccc(-c3cc(F)c(-c4cn[nH]c4)cc3F)nn2)CC(C)(C)N1 [Cpd 431, 3-[2,5-difluoro-4-(1H-pyrazol-4-yl)phenyl]-6-[(2,2,6,6-tetramethylpiperidin-4-yl)oxy]pyridazine] | 6.30 to 7.00 |
| CN(c1ccc(-c2ccc(-c3cn[nH]c3)cc2O)nn1)C1CCNCC1 [Cpd 426, 2-{6-[methyl(piperidin-4-yl)amino]pyridazin-3-yl}-5-(1H-pyrazol-4-yl)phenol] | 6.30 to 7.00 |
| 5-(3,5-dimethyl-1H-pyrazol-4-yl)-2-{6-[(2,2,6,6-tetramethylpiperidin-4-yl)oxy]pyridazin-3-yl}phenol [Cpd 451] | 5.05 to 5.52 |
| CN(c1ccc(-c2ccc(C#N)cc2O)nn1)C1CC(C)(C)NC(C)(C)C1 [Cpd 39, 3-hydroxy-4-(6-(methyl(2,2,6,6-tetramethylpiperidin-4-yl)amino)pyridazin-3-yl)benzonitrile] | 5.05 to 5.52 |
